Numbers after ± are expanded uncertainties.

The conditions of data set [1]: Liquid; for mass density: 101.33 kPa.
Data set [2] can be described thus: refractive index (Na D-line) (dimensionless). The following applies: 101.33 kPa, Liquid, Standard Abbe refractometry.

The mass density is mass per unit of volume. The term vapor or sublimation pressure denotes the pressure of vapour in equilibrium with the condensed phase. The refractive index is the speed of light in vacuum divided by its phase velocity in the sample. As to `ClC(Cl)C(Cl)Cl` [1,1,2,2-tetrachloroethane], in data set [1] (293.15 K), the mass density stood at 1594.5 ± 5.1 kg/m3. Further, the “vapor or sublimation pressure” value in data set [1] (417.25 K) is recorded as 95.5 ± 4 kPa. Also, in data set [2] (293.15 K), the refractive index worked out at 1.494 ± 0.0008.
For `ClCCCl` [1,2-dichloroethane], in data set [1] (293.15 K), the mass density is recorded as 1252.1 ± 3.8 kg/m3. For the same compound, the “vapor or sublimation pressure” value in data set [1] (355.15 K) came out at 95.5 ± 4 kPa. Moreover, the refractive index in data set [2] (293.15 K) worked out at 1.4448 ± 0.0008.
Turning to `CC(C)CO` [2-methyl-1-propanol], the mass density in data set [1] (298.15 K) is 797.8 ± 2.1 kg/m3. Further, the “vapor or sublimation pressure” value in data set [1] (379.76 K) turned out to be 95.5 ± 5 kPa. Besides, the refractive index in data set [2] (298.15 K) came out at 1.3939 ± 0.0008.
For `CC(C)(C)O` [2-methylpropan-2-ol], the mass density in data set [1] (298.15 K) was found to be 781.2 ± 2.1 kg/m3. Besides, the “vapor or sublimation pressure” value in data set [1] (354.15 K) turned out to be 95.5 ± 4 kPa. Besides, in data set [2] (298.15 K), the refractive index is listed as 1.3852 ± 0.0008.
As to `CCC(C)O` (configuration not stated) [butan-2-ol], in data set [1] (298.15 K), the mass density was found to be 802.4 ± 2.2 kg/m3. In addition, the “vapor or sublimation pressure” value in data set [1] (371.25 K) was determined as 95.5 ± 4 kPa. In addition, the refractive index in data set [2] (298.15 K) worked out at 1.3953 ± 0.0008.
On to `CN(C)C=O` [dimethylformamide], for which the mass density in data set [1] (298.15 K) is 943.9 ± 2.5 kg/m3. Further, the “vapor or sublimation pressure” value in data set [1] (421.15 K) is listed as 95.5 ± 4 kPa. In addition, the refractive index in data set [2] (298.15 K) is given as 1.4282 ± 0.0007.
Regarding `CCO` [ethanol], the mass density in data set [1] (298.15 K) came to 784.9 ± 2.1 kg/m3. In addition, the “vapor or sublimation pressure” value in data set [1] (349.95 K) was 95.5 ± 4 kPa. In addition, in data set [2] (298.15 K), the refractive index is listed as 1.3591 ± 0.0008.
As to `ClC(Cl)=C(Cl)Cl` [tetrachloroethene], the mass density in data set [1] (293.15 K) was found to be 1622.8 ± 5.3 kg/m3. The “vapor or sublimation pressure” value in data set [1] (392.15 K) was determined as 95.5 ± 4 kPa. In addition, in data set [2] (293.15 K), the refractive index was found to be 1.5058 ± 0.0008.
Regarding `ClC=C(Cl)Cl` [trichloroethene], the mass density in data set [1] (293.15 K) is recorded as 1464 ± 4.6 kg/m3. Further, the “vapor or sublimation pressure” value in data set [1] (357.85 K) was 95.5 ± 4 kPa. Moreover, the refractive index in data set [2] (293.15 K) amounted to 1.4782 ± 0.0008.

The record behind these values is the NIST ThermoML archive (doi:10.1016/j.fluid.2006.08.018).
